Laboratory results published in paper PMC7725692 (Frontiers in Molecular Neuroscience, 2020).

Key:
Nam-ACR-16 [1] = molecular target: T1, Nam-ACR-16 (Necator americanus, UniProt A0A7M1S0Z8); assay: two-electrode voltage clamp in Xenopus oocytes, agonist concentration-response; type: cell-based; design: full-length homopentameric receptor, co-expressed with Hco-RIC-3 in Xenopus laevis oocytes
T1 sequence (A0A7M1S0Z8 22-498): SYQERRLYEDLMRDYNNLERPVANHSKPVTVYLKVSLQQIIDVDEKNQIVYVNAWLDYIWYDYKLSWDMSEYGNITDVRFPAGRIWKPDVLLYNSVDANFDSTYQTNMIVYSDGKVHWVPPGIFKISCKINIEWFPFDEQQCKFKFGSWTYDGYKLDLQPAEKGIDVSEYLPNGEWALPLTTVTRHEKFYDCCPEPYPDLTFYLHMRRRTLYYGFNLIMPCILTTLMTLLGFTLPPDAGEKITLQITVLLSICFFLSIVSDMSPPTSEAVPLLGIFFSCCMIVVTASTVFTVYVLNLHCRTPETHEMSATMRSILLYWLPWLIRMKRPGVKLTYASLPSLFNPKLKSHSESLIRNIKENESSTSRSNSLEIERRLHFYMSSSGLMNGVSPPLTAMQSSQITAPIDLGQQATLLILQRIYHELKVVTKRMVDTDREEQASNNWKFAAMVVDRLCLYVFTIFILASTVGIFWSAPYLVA

Ace-ACR-16 [2] = molecular target: T2, Ace-ACR-16 (Ancylostoma ceylanicum, UniProt A0A7M1S071); assay: cell-based; settings: read-out: % inhibition at 500 μM
T2 sequence (A0A7M1S071 22-498): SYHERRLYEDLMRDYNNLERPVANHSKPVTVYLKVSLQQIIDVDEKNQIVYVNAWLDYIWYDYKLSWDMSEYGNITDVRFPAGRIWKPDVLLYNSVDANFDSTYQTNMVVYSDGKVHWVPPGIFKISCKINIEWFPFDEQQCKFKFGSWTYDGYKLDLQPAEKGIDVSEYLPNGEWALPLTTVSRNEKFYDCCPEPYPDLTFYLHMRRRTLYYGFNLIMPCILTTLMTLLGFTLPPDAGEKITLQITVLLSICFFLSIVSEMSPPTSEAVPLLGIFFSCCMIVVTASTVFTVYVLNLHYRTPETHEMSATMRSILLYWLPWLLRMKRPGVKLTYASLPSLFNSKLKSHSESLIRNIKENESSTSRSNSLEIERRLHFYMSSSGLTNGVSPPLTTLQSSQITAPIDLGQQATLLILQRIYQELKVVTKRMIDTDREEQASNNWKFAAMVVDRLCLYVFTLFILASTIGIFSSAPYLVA

Nam-ACR-16 [3] = molecular target: T1, Nam-ACR-16; assay: cell-based; settings: read-out: % inhibition at 500 μM
Nam-ACR-16 [4] = molecular target: T1, Nam-ACR-16; assay: two-electrode voltage clamp in Xenopus oocytes, agonist concentration-response (weak partial agonist); type: cell-based; design: full-length homopentameric receptor, co-expressed with Hco-RIC-3 in Xenopus laevis oocytes
Ace-ACR-16 [5] = molecular target: T2, Ace-ACR-16; assay: two-electrode voltage clamp in Xenopus oocytes, agonist concentration-response (full agonist); type: cell-based; design: full-length homopentameric receptor, co-expressed with Hco-RIC-3 in Xenopus laevis oocytes
Ace-ACR-16 [6] = molecular target: T2, Ace-ACR-16; assay: cell-based; design: full-length homopentameric receptor, co-expressed with Hco-RIC-3 in Xenopus laevis oocytes; settings: read-out: % maximal acetylcholine response

CC(=O)OCC[N+](C)(C)C [acetylcholine]
EC50 (Nam-ACR-16 [1]): 170 ± 19.2 µM

c1ccc([C@H]2CN3CCSC3=N2)cc1 [levamisole]
inhibition at 500 µM (Ace-ACR-16 [2]): 65.1 ± 14.3% | inhibition at 500 µM (Nam-ACR-16 [3]): 79.5 ± 7.7%

CN1CCC[C@H]1c1cccnc1 [nicotine]
EC50 (Nam-ACR-16 [4]): 598 ± 59.1 µM | EC50 (Ace-ACR-16 [5]): 24.4 ± 2.89 µM

CN1CCCN=C1/C=C/c1cccc(O)c1 [oxantel]
Emax (Ace-ACR-16 [6]): 15.6 ± 9.6%

CN1CCCN=C1/C=C/c1cccs1 [pyrantel]
Emax (Ace-ACR-16 [6]): 12.5 ± 7.5%
